Like-named read-outs stand apart in the source and are kept apart here.
Columns and labels:
[1] = test system: zona pellucida of a mouse unfertilized ovum; test: Swelling of zona pellucida (area in zona pellucida) of unfertilized ovum; format: cell-based; conditions: 37° C., 6 hours
Description: Further, the influence of glutathione on swelling of zona pellucida was confirmed. […] Preparation of ovum” were treated with HTF culture media containing glutathione at various concentration at 37° C. for 6 hours, then, the area in zona pellucida was photographed under a microscope and measured by an image analysis software. The conditions of zona pellucida at glutathione concentrations of 0 mM, 1 mM, 2 mM and 10 mM were observed by an invert microscope.
The influence of other reducing agents (DTT, ascorbic acid (VC) and epicatechin (EC)) exerted on thinning and swelling of zona pellucida was confirmed in the same manner as in Example 2. The extent of swelling of the zona pellucida of an unfertilized ovum by the concentration of each reducing agent was photographed under a microscope, and determined according to the following formula. % Relative area in ZP=(area of zona pellucida in each experiment/area of zona pellucida at 0 mM)×100

[2] = test system: zona pellucida-eliminated ovum; conditions: frozen C57BL/6 sperms
[3] = Description: Mouse fresh unfertilized ovums in which cumulus cells had been removed prepared according to the above-described “1. Preparation of oocyte” were prepared, then, 10 μl of an HTF culture medium containing glutathione at various concentrations (5, 10, 25, 50, 100, 200 and 300 mM) was dropped onto the bottom of a petri dish, and 20 ovums were inserted into this, and the time until elimination of zona pellucida was measured.
[4] = test system: mouse embryo in the early stages of development (8-cell stage embryo); conditions: glutathione 100 mM, 20° C., 90 seconds
Source text: The zona pellucida of a mouse embryo in the early stages of development (8-cell stage embryo) used for production of a genetically modified mouse was eliminated.

[5] = test system: 2-cell stage embryos transplanted into female mice; conditions: fertilization and incubation in HTF with 1 mM glutathione; frozen C57BL/6J sperms
Source text: As the receptive female, ICR mice are used, and on the day before transplantation, external genitals are observed and those in the proestrus stage are selected and allowed to live together with vasoligated males. On the following day, those showing vaginal plug are used as the receptive female (on day 1 of pseudopregnancy). The skin and abdominal wall of the anesthetized receptive female are incised, and part of ovary, oviduct and uterus is exposed to the outside of the body through the incised portion, and fat adhered to ovary is fixed by a clamp. A 200 μl drop for transplantation is produced at the center of a dish, and embryos to be transplanted (20/individual) are transferred into the drop for transplantation. Next, 10 embryos are sucked together with a small amount of an incubation solution into a transplantation capillary. About ½ to ⅔ of the circumference of oviduct is incised, and the capillary containing embryos is inserted through the incised portion toward ampulla of oviduct and embryos are transplanted. Also into the opposite oviduct, embryos are transplanted by the same operation procedure.
The offspring rate (implanting rate) after embryo transplantation is determined according to the following formula. Offspring development rate (%)=(number of offspring)/(number of transplanted embryo)×100 […]

pH ([3]; HTF culture medium with glutathione 5 mM): 7.3
pH ([3]; HTF culture medium with glutathione 10 mM): 7.4
pH ([3]; HTF culture medium with glutathione 25 mM): 6.1
pH ([3]; HTF culture medium with glutathione 50 mM): 4.0
pH ([3]; HTF culture medium with glutathione 100 mM): 3.5
pH ([3]; HTF culture medium with glutathione 200 mM): 3.1
pH ([3]; HTF culture medium with glutathione 300 mM): 3.1
SMILES: N[C@@H](CCC(=O)N[C@@H](CS)C(=O)NCC(=O)O)C(=O)O [glutathione, reduced glutathione]
glutathione concentration at which swelling of zona pellucida was recognized remarkably [1]: ≥ 2 mM
swelling of zona pellucida ([1]; HTF with glutathione at various concentration): swelling of zona pellucida was confirmed depending on the glutathione concentration
fertilization and development of zona pellucida-eliminated ovum ([2]; glutathione 100 mM pre-treatment): fertilization occurred and the development of an ovum (ovum division) was confirmed
embryos developed to the blastocyst stage ([2]; of 70 zona pellucida-eliminated embryos (glutathione 100 mM)): 66
elimination of zona pellucida of 8-cell stage embryo [4]: elimination of zona pellucida from a 8-cell stage embryo
offspring development rate [5]: 53.8%
offspring development rate (offspring/transplanted embryos) [5]: 43/80

— patent US9453242B2, “Method and culture medium for preparing mammalian ovum or embryo in which zona pellucida has been thinned or eliminated, and method for fertilization using mammalian ovum prepared by same method” (NATIONAL UNIVERISTY CORPORATION KUMAMOTO UNIVERSITY, priority 2010, dated 2016)
